Laboratory results: publication PMC9424906 (Frontiers in Pharmacology, 2022)
Converted amounts (≈) assume the structure as drawn. “Also recorded” adds a separate entry of the source.

What was measured:
[1] = tested on: OCT1; conditions: cited from earlier work
[2] = 7-days dose range finding study in monkeys; conditions: oral, 7 days, 1,000 mg/kg/day
[3] = target: ENT4 (Homo sapiens, UniProt Q7RTT9); assay: Nucleoside transporter uptake, ENT4-transfected MDCK cells
[4] = 7-days dose range finding study in rats; conditions: oral, 7 days, 1,500 mg/kg/day
[5] = target: T1, CNT3 (Homo sapiens, UniProt Q9HAS3); assay: Nucleoside transporter uptake, CNT3-transfected MDCK cells; type: in vitro ADME
T1 construct: expressed in transfected cells; host or cells: MDCK-II
Description: Each condition was run in triplicate.

[6] = tested on: SARS-CoV-2 (2019-nCoV/USA-WAl/2020); type: cell-based; conditions: EpiAirway 3D HAE tissue model
[7] = 7-days dose range finding study in dogs; conditions: oral, 2000 mg/kg/day
[8] = physchem; conditions: for solubility thermodynamic: thermodynamic from solid
[9] = tested on: OATP1B1; conditions: cited from earlier work
[10] = tested on: EpiAirway human tracheobronchial epithelial tissues
[11] = Liver microsomal stability, CD-1 mouse; type: in vitro ADME; conditions: liver microsomes, pH 7.4, 0.5 mg/mL
Protocol: Samples were analyzed using UPLC-MS/MS.

[12] = in vitro; type: in vitro ADME; conditions: both sexes, human, plasma
Protocol: Plasma protein binding experiments were carried out in mixed-gender human plasma, male Sprague-Dawley rat plasma, male CD-1 plasma, male Beagle dog plasma, and male Cynomolgus monkey plasma (BioIVT) using a Pierce Rapid Equilibration Dialysis (RED) device. […] Blank phosphate-buffered saline (PBS) (500 μL) was added to each corresponding receiver chamber. After 4 h of incubation (with shaking at 37°C), both sides were aliquoted, and matrix was normalized. Samples were centrifuged at 1000 g for 10 min after adding two volumes of ACN with IS. Supernatants were diluted 1:1 with water and analyzed with LC-MS/MS.
Plasma Protein binding was calculated as follows:
% Bound = [(PARR in Donor–PARR in Receiver)/(PARR in Donor)] × 100.
PARR = peak area response ratio to internal standard, including applicable dilution factors.

[13] = Pharmacokinetics in Cynomolgus monkeys; type: in vivo; conditions: male, cynomolgus monkey
Protocol: Adult male C57BL/6 mice and Sprague Dawley rats were purchased from Charles River Laboratory (Wilmington, MA). PK studies for mice and rats were conducted at NIH animal facility (Bethesda, MD). In-life dog and monkey PK studies were conducted at Absorption System (San Diego, CA) and Frontage Labs (Concord, OH), respectively. Dogs and monkeys were fasted overnight prior to dose administrations. All experimental procedures were reviewed and approved by the Animal Care and Use Committee (ACUC) of the NIH Division of Veterinary Resources (DVR) or CRO labs for in-life studies.
The dosing volumes were 2 mL/kg for IV and 5 mL/kg for PO. Blood samples were obtained from each monkey up to 48 h after IV and PO administration. Urine samples were collected over 48 h for IV group.
Blood samples from all groups and species were collected in K2EDTA tubes and stored on wet ice pending processing. Blood was centrifuged at 2200 g at 4°C for 10 min to isolate plasma. All samples were stored at -80°C until analysis.
Phoenix WinNonlin, version 8.1 (Certara, St. Louis, MO), was used to perform PK analysis with the non-compartmental approach (Models 200 and 201 for PO and IV datasets). The area under the plasma concentration vs. time curve (AUC) was calculated using the linear trapezoidal method. The terminal rate constant (λ) was obtained from the slope of at least three data points of the apparent terminal phase of the log-linear plasma concentration vs. time curve when available. AUC0–∞ was estimated as the sum of the AUC0–t (where t is the time of the last measurable concentration) and Ct/λ. The apparent terminal half-life (t½) was calculated as 0.693/λ. Bioavailability (F) was calculated using ratios of dose normalized AUC (AUC/Dose) obtained from PO and IV PK studies.

T1 sequence (Q9HAS3 whole entry): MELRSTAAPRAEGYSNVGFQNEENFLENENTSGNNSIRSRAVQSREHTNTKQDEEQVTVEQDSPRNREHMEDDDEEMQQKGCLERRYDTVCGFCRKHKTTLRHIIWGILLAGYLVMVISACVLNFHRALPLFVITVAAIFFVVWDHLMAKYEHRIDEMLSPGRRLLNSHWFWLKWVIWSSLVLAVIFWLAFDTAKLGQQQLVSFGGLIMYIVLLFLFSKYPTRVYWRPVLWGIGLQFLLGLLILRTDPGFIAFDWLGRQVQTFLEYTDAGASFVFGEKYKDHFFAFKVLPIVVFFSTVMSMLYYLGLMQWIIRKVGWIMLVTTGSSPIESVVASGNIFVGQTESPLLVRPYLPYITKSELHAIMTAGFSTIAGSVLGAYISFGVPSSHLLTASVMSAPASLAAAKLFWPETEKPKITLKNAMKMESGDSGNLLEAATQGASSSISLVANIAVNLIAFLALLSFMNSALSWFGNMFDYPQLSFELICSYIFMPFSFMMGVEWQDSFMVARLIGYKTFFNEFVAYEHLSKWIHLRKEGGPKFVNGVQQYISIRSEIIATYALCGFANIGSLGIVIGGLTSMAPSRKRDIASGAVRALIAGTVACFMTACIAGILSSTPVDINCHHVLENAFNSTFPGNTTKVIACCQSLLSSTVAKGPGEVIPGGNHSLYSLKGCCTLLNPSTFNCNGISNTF
Sequence of ENT4 (Q7RTT9 whole entry): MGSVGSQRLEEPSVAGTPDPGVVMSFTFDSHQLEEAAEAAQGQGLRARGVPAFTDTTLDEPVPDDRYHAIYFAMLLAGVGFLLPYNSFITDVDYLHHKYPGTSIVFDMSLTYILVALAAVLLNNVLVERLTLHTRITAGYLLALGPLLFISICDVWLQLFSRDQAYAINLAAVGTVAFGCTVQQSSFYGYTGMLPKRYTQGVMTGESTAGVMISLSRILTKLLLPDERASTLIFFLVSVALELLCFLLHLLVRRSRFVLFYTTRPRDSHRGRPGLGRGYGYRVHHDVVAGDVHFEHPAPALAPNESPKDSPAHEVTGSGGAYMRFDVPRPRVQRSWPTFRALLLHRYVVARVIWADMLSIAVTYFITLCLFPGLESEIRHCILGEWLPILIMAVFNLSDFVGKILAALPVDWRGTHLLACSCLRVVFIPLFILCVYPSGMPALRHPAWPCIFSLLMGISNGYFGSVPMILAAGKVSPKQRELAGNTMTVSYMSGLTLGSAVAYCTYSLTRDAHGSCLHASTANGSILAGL

N#C[C@@]1(c2ccc3c(N)ncnn23)O[C@H](CO)[C@@H](O)[C@H]1O [GS-441524]
Substrate of OCT1 [1]: not a substrate | Tolerability at maximum feasible dose [2]: well tolerated | Difference in uptake compared to control cells [3]: less than 2 fold | Tolerability at maximum feasible dose [4]: well tolerated | Substrate of CNT3 [5]: substrate | Inhibition of uptake by reference inhibitor ([5]; CNT3-transfected cells, reference inhibitor adenosine, 30 µM GS-441524): 98.9% | Potency on viral titer (TCID50) at 24 h ([6]; 24 h): lower potency than EIDD-2801 | Viral titer (TCID50) ([6]; 24 h and 96 h after infection): significantly inhibited the viral infection; also recorded: reduced viral load | Tolerability at maximum feasible dose [7]: well tolerated | solubility thermodynamic ([8]; pH 1.6, simulated gastric fluid): > 1000 µg/mL | solubility thermodynamic ([8]; pH 2, aqueous buffer): > 1000 µg/mL | solubility ([8]; pH 5): 35 to 52 µg/mL (≈ 120 to 179 µM) | solubility thermodynamic ([8]; pH 5, aqueous buffer): 52 µg/mL (≈ 179 µM) | solubility thermodynamic ([8]; pH 5.8, fessif): 52 µg/mL (≈ 179 µM) | solubility thermodynamic ([8]; pH 6.5, fassif): 35 µg/mL (≈ 120 µM) | solubility thermodynamic ([8]; pH 7.4, aqueous buffer): 47 µg/mL (≈ 161 µM) | Substrate of OATP1B1 [9]: not a substrate | Cytotoxicity [10]: did not exhibit any cytotoxicity | half-life at 1 µM [11]: 1.3 ± 0.05 h | fraction unbound at 4 h, 10 µM [12]: ~0.78 | Vd ([13]; in vivo, iv, 2 mg/kg): 1.1 ± 0.04 L/kg | clearance ([13]; in vivo, iv, 2 mg/kg): 9.5 ± 1 mL/min/kg | AUC(0-inf) ([13]; in vivo, po, 5 mg/kg): 734 ± 138 ng·h/mL | Cmax ([13]; in vivo, po, 5 mg/kg): 59.4 ± 18.1 ng/mL | Tmax ([13]; in vivo, po, 5 mg/kg): 2 h | bioavailability ([13]; in vivo, po, 5 mg/kg): 8.3 ± 1.6% | half-life ([13]; plasma, Monkey, PO 5 mg/kg): 7.7 ± 1.4 h
